Reference: patent publication US20100063047A1 (KALYPSYS, INC., priority 2008, published 2010)

Columns and labels:
human H4 = biological target: T1, human H4 (Homo sapiens, UniProt Q9H3N8); assay: In vitro histamine H4 receptor cell-based aequorin bioluminescence antagonist assay; details: CHO-K1 cells expressing human H4, aequorin and Gα16; histamine at EC80
T1 construct: host or cells: CHO-K1, also expressing mitochondrion-targeted aequorin and human Gα16
How it was run: (§1)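 CHO-K1 cells stably expressing human H1 or H4 plus mitochondrial aequorin (H4 also with Gα16), loaded with 5 μM coelenterazine-h for 4 h at ~21 °C. Compounds preincubated 15 min at room temperature, then histamine at EC80 added.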

human H1 = biological target: T2, human H1 (Homo sapiens, UniProt P35367); assay: In vitro histamine H1 receptor cell-based aequorin bioluminescence antagonist assay; details: CHO-K1 cells expressing human H1 and aequorin; histamine at EC80; read-out: H1 Antagonist EC50
T2 construct: host or cells: CHO-K1, also expressing mitochondrion-targeted aequorin
T2 sequence (P35367 whole entry): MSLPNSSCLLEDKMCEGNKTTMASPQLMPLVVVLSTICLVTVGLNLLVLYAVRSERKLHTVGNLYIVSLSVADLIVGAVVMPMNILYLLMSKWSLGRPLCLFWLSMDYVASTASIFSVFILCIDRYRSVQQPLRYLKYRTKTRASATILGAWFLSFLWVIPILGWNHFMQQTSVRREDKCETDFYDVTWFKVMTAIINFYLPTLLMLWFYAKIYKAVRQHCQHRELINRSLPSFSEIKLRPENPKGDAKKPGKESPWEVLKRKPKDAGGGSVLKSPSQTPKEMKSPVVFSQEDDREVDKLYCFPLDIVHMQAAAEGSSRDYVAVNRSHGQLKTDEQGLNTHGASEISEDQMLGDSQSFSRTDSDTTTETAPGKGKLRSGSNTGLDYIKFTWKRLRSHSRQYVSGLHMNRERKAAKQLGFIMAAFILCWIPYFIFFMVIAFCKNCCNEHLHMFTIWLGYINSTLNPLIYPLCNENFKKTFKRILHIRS
How it was run: as §1

[1] = system: tissue eosinophil peroxidase (EPO); assay: Allergic conjunctivitis in passively sensitized guinea pigs, conjunctival EPO activity; assay type: in vivo; set-up: key: a test compound was assigned a “+” if a ≦0.1% qd dose was statistically equivalent to dexamethasone with respect to reduction of EPO activity; a “−” was assigned if the compound was statistically inferior to dexamethasone and not different than vehicle; details: ≦0.1% qd topical dose (1 hour prior to challenge); reduction of conjunctival EPO activity 24 h after ovalbumin challenge, compared with 0.1% w/v dexamethasone; guinea pig
Method: (§2) Allergic Conjunctivitis in Passively Sensitized Guinea Pigs
Male Hartley VAF outbred guinea pigs were passively sensitized to ovalbumin by a single OD subconjunctival injection of undiluted guinea pig anti-ovalbumin antiserum 24 hours before OD topical challenge with 500 μg ovalbumin in saline. Control animals were injected with saline only and challenged with ovalbumin. To determine acute phase drug efficacy, 30 min after challenge animals were clinically scored by a masked observer for severity of signs of conjunctivitis based on a standard scale. Test compounds were administered topically 1 hour prior to challenge (QD protocol), or 1 hour prior to challenge and again 8 hours after challenge (BID protocol). […] EPO activity in supernatants was measured by reacting diluted homogenates with a solution of 6 mM o-phenylenediamine substrate and 8.8 mM H2O2 in homogenization buffer for 3 min. The reaction was stopped with 4M H2SO4 and absorbances were measured at 490 nm on a spectrophotometric plate reader. Total EPO in samples was calculated from a standard curve of recombinant human EPO in each assay. […] Background EPO activity was determined from the unsensitized, antigen-challenged control group. Percent inhibition was calculated from the sensitized, antigen-challenged, vehicle-treated control group in each experiment. […]

[2] = system: tissue eosinophil peroxidase (EPO); assay: as above; assay type: in vivo; set-up: key: a test compound was assigned a “+” if a 0.01% bid dose was statistically equivalent to dexamethasone with respect to reduction of EPO activity; a “−” was assigned if the compound was statistically inferior to dexamethasone and not different than vehicle; details: reduction of conjunctival EPO activity 24 h after ovalbumin challenge, compared with 0.1% w/v dexamethasone, guinea pig; for BID activity: 0.01% bid topical dose (1 hour prior to and 8 hours after challenge); for QD activity: ≦0.1% qd topical dose (1 hour prior to challenge)
Method: as §2
Male Hartley VAF outbred guinea pigs were passively sensitized to ovalbumin by a single OD subconjunctival injection of undiluted guinea pig anti-ovalbumin antiserum 24 hours before OD topical challenge with 500 μg ovalbumin in saline. Control animals were injected with saline only and challenged with ovalbumin. To determine acute phase drug efficacy, 30 min after challenge animals were clinically scored by a masked observer for severity of signs of conjunctivitis based on a standard scale. Test compounds were administered topically 1 hour prior to challenge (QD protocol), or 1 hour prior to challenge and again 8 hours after challenge (BID protocol). Twenty-four hours after challenge, animals were euthanized and conjunctivae were harvested for determination of tissue eosinophil peroxidase (EPO) concentration as a marker of allergic inflammation. Homogenates of freshly collected tissues were prepared by shaking the tissues in 2 mL round-bottom tubes containing 0.5 mL of homogenization buffer (50 mM Tris HCl, pH 8.0, 6 mM KBr) and one 5-mm stainless steel bead on a Qiagen TissueLyser at 30 Hz for 5 min. Homogenates were frozen and thawed once, then centrifuged at 10,000 rpm for 5 min. EPO activity in supernatants was measured by reacting diluted homogenates with a solution of 6 mM o-phenylenediamine substrate and 8.8 mM H2O2 in homogenization buffer for 3 min. The reaction was stopped with 4M H2SO4 and absorbances were measured at 490 nm on a spectrophotometric plate reader. Total EPO in samples was calculated from a standard curve of recombinant human EPO in each assay. EPO activity was normalized to total protein concentration (Pierce BCA assay) in supernatants. Background EPO activity was determined from the unsensitized, antigen-challenged control group. Percent inhibition was calculated from the sensitized, antigen-challenged, vehicle-treated control group in each experiment. Ovalbumin-injected animals dosed topically with 0.1% w/v dexamethasone (dex) served as positive control. Groups were compared by ANOVA with Dunnett's or Tukey's post-hoc tests where appropriate with significance assigned at the 95% confidence level.
The table below summarizes the results.

T1 sequence (Q9H3N8 whole entry): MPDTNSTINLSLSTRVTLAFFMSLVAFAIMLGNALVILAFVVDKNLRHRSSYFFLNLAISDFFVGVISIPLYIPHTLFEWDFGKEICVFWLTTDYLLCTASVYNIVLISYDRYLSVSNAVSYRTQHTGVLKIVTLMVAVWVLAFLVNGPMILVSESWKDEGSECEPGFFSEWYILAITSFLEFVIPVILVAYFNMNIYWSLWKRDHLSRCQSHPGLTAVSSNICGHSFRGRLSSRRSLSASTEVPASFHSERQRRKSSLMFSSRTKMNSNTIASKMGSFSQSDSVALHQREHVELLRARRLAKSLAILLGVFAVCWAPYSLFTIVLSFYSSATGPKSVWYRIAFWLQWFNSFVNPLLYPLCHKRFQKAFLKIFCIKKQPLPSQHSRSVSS

Row | Compound | EC50 (human H4) | EC50 (human H1) | QD activity [1] | BID activity [2] | QD activity [2]
1 | Cc1csc2ncnc(NCc3ccccn3)c12 [Example 85, 5-methyl-N-(pyridin-2-ylmethyl)thieno[2,3-d]pyrimidin-4-amine] | > 10 µM | > 10 µM | + |  | 
2 | Cc1csc2ncnc(NC3Cc4ccccc4C3)c12 [Example 29, N-(2,3-dihydro-1H-inden-2-yl)-5-methylthieno[2,3-d]pyrimidin-4-amine] |  | > 10 µM | + |  | 
3 | Cc1sc2ncnc(NCCc3ccccc3Cl)c2c1C [Example 43, N-[2-(2-chlorophenyl)ethyl]-5,6-dimethylthieno[2,3-d]pyrimidin-4-amine] |  | > 10 µM |  | − | 
4 | Clc1ccc(CCNc2nccc3sccc23)cc1 [Example 27, N-(4-chlorophenethyl)thieno[3,2-c]pyridin-4-amine] | > 10 µM | > 10 µM |  | + | −
5 | Clc1ccc(CCNc2ncnc3sccc23)cc1 [Example 45, N-[2-(4-chlorophenyl)ethyl]thieno[2,3-d]pyrimidin-4-amine] |  | > 10 µM |  | + | −
6 | CCN(CC)CCCC(C)Nc1ncnc2scc(C)c12 (centres unmarked) [Example 151, diethyl[4-({5-methylthieno[2,3-d]pyrimidin-4-yl}amino)pentyl]amine] | > 10 µM | > 10 µM |  |  | 
7 | Cc1csc2ncnc(N3CCCC4CCCCC43)c12 (centres unmarked) [Example 222, 1-{5-methylthieno[2,3-d]pyrimidin-4-yl}-decahydroquinoline] | > 10 µM | > 10 µM |  |  | 
8 | Cc1csc2ncnc(NCC(=O)c3ccccc3)c12 [Example 161, 2-({5-methylthieno[2,3-d]pyrimidin-4-yl}amino)-1-phenylethan-1-one] | > 10 µM | > 10 µM |  |  | 
9 | Cc1csc2ncnc(N3CCC(O)(c4ccc(Cl)cc4)CC3)c12 [Example 280, 4-(4-chlorophenyl)-1-{5-methylthieno[2,3-d]pyrimidin-4-yl}piperidin-4-ol] | > 10 µM | > 10 µM |  |  | 
10 | Cc1csc2ncnc(NCCCN3CCCC3=O)c12 [Example 132, 1-[3-({5-methylthieno[2,3-d]pyrimidin-4-yl}amino)propyl]pyrrolidin-2-one] | > 10 µM | > 10 µM |  |  | 
11 | Cc1csc2ncnc(N3Cc4ccccc4C3)c12 [Example 208, 2-{5-methylthieno[2,3-d]pyrimidin-4-yl}-2,3-dihydro-1H-isoindole] | > 10 µM | > 10 µM |  |  | 
12 | CCCCN(CC)c1ncnc2scc(C)c12 [Example 195, N-butyl-N-ethyl-5-methylthieno[2,3-d]pyrimidin-4-amine] | > 10 µM | > 10 µM |  |  | 
13 | Cc1csc2ncnc(NCCC#N)c12 [Example 57, 3-({5-methylthieno[2,3-d]pyrimidin-4-yl}amino)propanenitrile] | > 10 µM | > 10 µM |  |  | 
14 | Cc1csc2ncnc(N(C)CCC#N)c12 [Example 184, 3-[methyl({5-methylthieno[2,3-d]pyrimidin-4-yl})amino]propanenitrile] | > 10 µM | > 10 µM |  |  | 
15 | CNc1ncnc2scc(C)c12 [Example 49, N,5-dimethylthieno[2,3-d]pyrimidin-4-amine] | > 10 µM | > 10 µM |  |  | 
16 | Cc1csc2ncnc(N(CCO)[C@H](C)c3ccccc3)c12 [Example 236, 2-({5-methylthieno[2,3-d]pyrimidin-4-yl}[(1R)-1-phenylethyl]amino)ethan-1-ol] | > 10 µM | > 10 µM |  |  | 
17 | CCC(C)Nc1ncnc2scc(C)c12 (centres unmarked) [Example 60, N-(butan-2-yl)-5-methylthieno[2,3-d]pyrimidin-4-amine] | > 10 µM | > 10 µM |  |  | 
